In patent US7989450B2, “Functionalized diarylisoxazoles inhibitors of ciclooxygenase” (Universita' Degli Studi Di Bari, priority 2008, dated 2011):

How the values were obtained:
[1] = target: T1, monocyte COX-2 induced by LPS (Homo sapiens, UniProt P35354); experiment: Biosynthesis of PGE2 in LPS-stimulated human whole blood, index of monocyte COX-2 activity; assay type: cell-based; conditions: human whole blood method, 24 hours at 37° C.; for IC50: LPS 10 microg/ml, PGE2 by RIA
T1 construct: incubated with heparinised whole blood in the presence of LPS (10 microg/ml) for 24 hours at 37° C; endogenous in cells; host or cells: LPS-stimulated monocytes in heparinised whole blood of healthy human volunteers
T1 sequence (P35354 18-604): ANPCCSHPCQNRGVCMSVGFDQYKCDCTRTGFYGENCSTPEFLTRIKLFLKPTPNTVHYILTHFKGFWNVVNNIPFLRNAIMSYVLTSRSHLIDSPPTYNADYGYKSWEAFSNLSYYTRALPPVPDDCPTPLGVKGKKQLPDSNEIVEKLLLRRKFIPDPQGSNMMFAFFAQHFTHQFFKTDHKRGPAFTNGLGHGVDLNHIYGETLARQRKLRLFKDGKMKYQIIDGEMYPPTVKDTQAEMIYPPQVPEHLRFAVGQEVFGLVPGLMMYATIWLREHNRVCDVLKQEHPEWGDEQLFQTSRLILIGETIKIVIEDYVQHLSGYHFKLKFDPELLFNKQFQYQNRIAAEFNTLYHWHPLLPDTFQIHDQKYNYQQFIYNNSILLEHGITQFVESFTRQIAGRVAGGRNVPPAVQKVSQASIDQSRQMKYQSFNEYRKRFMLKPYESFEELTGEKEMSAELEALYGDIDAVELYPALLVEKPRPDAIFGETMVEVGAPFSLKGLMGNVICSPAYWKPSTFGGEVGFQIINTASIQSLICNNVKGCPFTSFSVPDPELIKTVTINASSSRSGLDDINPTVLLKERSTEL
Description: (§1) Fourteen healthy volunteers (25-34 years) were enrolled to take part in the study and were studied on various occasions. Peripheral venous blood samples were taken from donors who had not taken FANS in the 2 weeks prior to the study.
Biosynthesis of PGE2 in the Whole Blood as an Index of Monocyte COX-2 Activity Induced by LPS.
Aliquots of 1 ml of whole blood taken from the cubital vein with a syringe containing heparin (20 IU/ml blood) were incubated with lipopolysaccharide (LPS, from Escherichia coli 026:B6; Sigma Chemical Company, St. Louis, Mo.) (10 μg/ml) for 24 hours at 37° C. The plasma was separated by centrifugation and kept at −70° C. The PGE2 was measured with a specific radioimmunological assay (RIA) as an index of monocyte COX-2 activity induced by LPS.

platelet COX-1 = target: T2, platelet COX-1 (Homo sapiens, UniProt P23219); experiment: Biosynthesis of TXB2 in human whole blood left to coagulate, index of platelet COX-1 activity; assay type: cell-based; conditions: human whole blood method, coagulation 1 hour at 37° C., TXB2 by RIA
T2 construct: 1 ml aliquots of whole blood were immediately transferred into glass test tubes and left to coagulate at 37° C; endogenous in cells; host or cells: platelets in whole blood of healthy human volunteers
T2 sequence (P23219 24-599): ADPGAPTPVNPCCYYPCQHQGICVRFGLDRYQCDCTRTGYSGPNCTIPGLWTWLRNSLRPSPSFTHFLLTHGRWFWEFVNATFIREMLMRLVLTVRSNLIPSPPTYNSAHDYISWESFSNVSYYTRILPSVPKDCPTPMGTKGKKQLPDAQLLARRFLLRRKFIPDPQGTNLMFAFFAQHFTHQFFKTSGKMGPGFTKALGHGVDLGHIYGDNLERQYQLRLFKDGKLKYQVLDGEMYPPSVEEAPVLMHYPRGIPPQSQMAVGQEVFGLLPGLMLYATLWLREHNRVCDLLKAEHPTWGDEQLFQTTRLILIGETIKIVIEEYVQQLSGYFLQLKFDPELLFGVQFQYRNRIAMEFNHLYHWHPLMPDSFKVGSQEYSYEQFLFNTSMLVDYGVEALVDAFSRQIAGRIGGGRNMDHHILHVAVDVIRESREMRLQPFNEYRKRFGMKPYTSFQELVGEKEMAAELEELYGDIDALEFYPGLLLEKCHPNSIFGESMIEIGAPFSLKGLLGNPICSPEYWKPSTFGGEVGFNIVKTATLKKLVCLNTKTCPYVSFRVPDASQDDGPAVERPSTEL
Description: as §1
1 ml aliquots of whole blood were immediately transferred into glass test tubes and left to coagulate at 37° C. for 60 minutes.

[2] = secondary prevention, various groups of patients; cited from earlier work

SMILES | melting point | IC50 (platelet COX-1) [nM] | also measured
Cc1onc(-c2ccc(Cl)o2)c1-c1ccccc1F [Example 7, 3-(5-Chlorofuran-2-yl)-4-(2-fluorophenyl)-5-methylisoxazole] |  | 1900 | IC50 [1]: > 100 µM
Cc1onc(-c2ccc(Cl)o2)c1-c1ccc(F)cc1 [Example 6, 3-(5-Chlorofuran-2-yl)-4-(4-fluorophenyl)-5-methylisoxazole] | 103.7 to 105.2 °C | 1900 | IC50 [1]: > 100 µM
CC(=O)Oc1ccccc1C(=O)O [aspirin, acetylsalicylic acid] |  |  | prevention of non fatal vascular events [2]: 25-30%; prevention of vascular death [2]: 15-20%
CC(=O)OCc1onc(-c2ccc(Cl)o2)c1-c1ccccc1 [Example 18, 5-Acetoxymethyl-3-(5-chlorofuran-2-yl)-4-phenylisoxazole] |  | 5200 | IC50 [1]: > 100 µM
Cc1onc(-c2ccco2)c1-c1ccccc1 [Example 12, 3-(Furan-2-yl)-4-phenyl-5-methylisoxazole] | 93 to 96 °C |  | 
CC1(O)ON=C(c2ccc(Cl)o2)C1c1ccc(F)cc1 (stereo not drawn) [Example 2, 3-(5-Chlorofuran-2-yl)-4-(4-fluorophenyl)-5-hydroxy-5-methyl-2-isoxazoline] | 101 to 102 °C |  | 
FC(F)(F)c1onc(-c2ccc(Cl)o2)c1-c1ccccc1 [Example 5, 3-(5-Chlorofuran-2-yl)-4-phenyl-5-(trifluoromethyl)isoxazole] | 55 to 57 °C | 810 | IC50 [1]: > 100 µM

Second part, led by results:

melting point | IC50 (platelet COX-1) [nM] | SMILES | also measured
102 to 103 °C | 4200 | OCc1onc(-c2ccc(Cl)o2)c1-c1ccccc1 [Example 17, 3-(5-Chlorofuran-2-yl)-4-phenyl-5-hydroxymethylisoxazole] | inhibition at 100 µM ([1]; 100 μM, LPS, read-out: COX-2 inhibition (I) at 100 μM): 44%
93 to 96 °C |  | Cc1onc(-c2ccc(Br)o2)c1-c1ccccc1 [Example 14, 3-(5-Bromofuran-2-yl)-4-phenyl-5-methylisoxazole] | 
79 to 79.8 °C |  | O=C(OCCCO[N+](=O)[O-])c1onc(-c2ccc(Cl)o2)c1-c1ccccc1 [Example 21, 3-(Nitroxy)propyl[3-(5-chlorofuran-2-yl)-4-phenylisoxazol-5-yl]carboxylate] | 
168 to 170 °C |  | O=C(O)c1onc(-c2ccc(Cl)o2)c1-c1ccccc1 [Example 15, [3-(5chlorofuran-2-yl)-4-phenylisoxazol-5-yl]carboxylic acid] | 
130 to 131 °C |  | COC(=O)c1onc(-c2ccc(Cl)o2)c1-c1ccccc1 [Example 16, Methyl [3-(5-chlorofuran-2-yl)-4-phenylisoxazol-5-yl]carboxylate] | 
82 to 83.7 °C |  | O=C(OCCCN1CCOCC1)c1onc(-c2ccc(Cl)o2)c1-c1ccccc1 [Example 19, 3-(Morpholin-1-yl)propyl[3-(5-chlorofuran-2-yl)-4-phenylisoxazol-5-yl]carboxilate] | 
100 to 101 °C |  | O=C(OCCCBr)c1onc(-c2ccc(Cl)o2)c1-c1ccccc1 [Example 20, 3-Bromopropyl[3-(5-chlorofuran-2-yl)-4-phenylisoxazol-5-yl]carboxylate] | 
113 to 117 °C (dec.) |  | COC(=O)c1c(-c2ccc(Cl)o2)noc1-c1ccccc1 [Example 22, Methyl3[-(5-chlorofuran-2-yl)-5-phenylisoxazol-4-yl]carboxylate] | 
